US6861390B2, “Derivatives of UK-2A” (priority 2001, dated 2005)

Columns and labels:
[1] = system: Rhizoctonia solani (RHIZSO); experiment: microbe, parasite or virus in culture; format: cell-based; conditions: read-out: T10 RHIZSO in vitro Growth Inhibition
[2] = system: Phytophthora infestans (PHYTIN); experiment: whole plant or invertebrate; conditions: in Solanum lycopersicum, 24 h, read-out: T3 PHYTIN in vivo 1 Day Protectant, control of fungal infection
[3] = system: Magnaporthe grisea (Pyricularia oryzae, PYRIOR); experiment: microbe, parasite or virus in culture; format: cell-based; conditions: read-out: T9 PYRIOR in vitro Growth Inhibition
[4] = system: Puccinia recondita (PUCCRT); experiment: Brown Rust of Wheat, whole plant 24 Hour Protectant (T5); conditions: wheat (cultivar Yuma), sprayed at 100 ppm, inoculated after 24 hours, read-out: T5 PUCCRT in vivo 1 Day Protectant, control of fungal infection
[5] = system: Mycosphaerella graminicola (Septoria tritici, SEPTTR); experiment: microbe, parasite or virus in culture; format: cell-based; conditions: Zymoseptoria tritici, read-out: T11 SEPTTR in vitro Growth Inhibition
[6] = system: Ustilago maydis (USTIMA); experiment: microbe, parasite or virus in culture; format: cell-based; conditions: Mycosarcoma maydis, read-out: T12 USTIMA in vitro Growth Inhibition
[7] = system: Septoria tritici (SEPTTR); experiment: Leaf Blotch of Wheat, whole plant 24 Hour Protectant (T6); conditions: Zymoseptoria tritici; wheat (cultivar Monon), sprayed at 100 ppm, inoculated after 24 hours; read-out: T6 SEPTTR in vivo 1 Day Protectant, control of fungal infection
[8] = system: Erysiphe graminis (ERYSGT); experiment: Powdery Mildew of Wheat, whole plant 24 Hour Protectant (T1); conditions: Blumeria graminis, in Triticum aestivum, read-out: T1 ERYSGT in vivo 1 Day Protectant, control of fungal infection
Description: Compound formulation was accomplished by dissolving technical materials in acetone, with serial dilutions then made in acetone to obtain desired concentrations. Final treatment volumes were obtained by adding 9 volumes 0.01% Triton X-100.
Powdery Mildew of Wheat (Erysiphe graminis—ERYSGT) (24 Hour Protectant): Wheat (cultivar Monon) was grown in a soilless peat-based potting mixture (“Metromix”) and mineral soil (50/50 mix) until the seedlings were 10-20 cm tall. These plants were then sprayed to run-off with the test compound at a rate of 100 ppm. After 24 hours the test plants were inoculated by dusting with conidia from powdery mildew infected wheat plants. The plants were then transferred to the greenhouse until disease developed on the untreated control plants.

[9] = system: Phytophthora infestans (PHYTIN); experiment: microbe, parasite or virus in culture; format: cell-based; conditions: in Secale cereale, read-out: T8 PHYTIN in vitro Growth Inhibition
[10] = system: Stagonospora nodorum (Leptosphaeria nodorum, LEPTNO); experiment: microbe, parasite or virus in culture; format: cell-based; conditions: Parastagonospora nodorum, read-out: T7 LEPTNO in vitro Growth Inhibition
[11] = system: Leptosphaeria nodorum (LEPTNO); experiment: Glume Blotch of Wheat, whole plant 24 Hour Protectant (T2); conditions: Parastagonospora nodorum; wheat (cultivar Yuma), sprayed at 100 ppm, inoculated after 24 hours; read-out: T2 LEPTNO in vivo 1 Day Protectant, control of fungal infection

Structure (SMILES) | inhibition at 25 ppm [1] | pest or weed control at 100 ppm [2] | inhibition at 25 ppm [3] | pest or weed control at 100 ppm [4] | inhibition at 25 ppm [5] | inhibition at 25 ppm [6] | melting point | pest or weed control at 100 ppm [7] | pest or weed control at 100 ppm [8] | inhibition at 25 ppm [9] | inhibition at 25 ppm [10] | pest or weed control at 100 ppm [11]
CCOCOc1c(OC)ccnc1C(=O)N[C@H]1COC(=O)[C@H](Cc2ccccc2)[C@@H](OC(=O)C(C)C)[C@H](C)OC1=O [Compound 5] | < 80% | < 25% | < 80% | 75 to 100% | < 80% | < 80% | 60 to 62 °C | 75 to 100% | 25 to 74% | < 80% | > 80% | 75 to 100%
COc1ccnc(C(=O)N[C@H]2COC(=O)[C@H](Cc3ccccc3)[C@@H](OC(=O)C(C)C)[C@H](C)OC2=O)c1OCOC(C)C [Compound 7] | < 80% | < 25% | < 80% | 75 to 100% | < 80% | > 80% | 124 to 127 °C | 75 to 100% | 25 to 74% | < 80% | > 80% | 75 to 100%
COc1ccnc(C(=O)N[C@H]2COC(=O)[C@H](Cc3ccccc3)[C@@H](OC(=O)C(C)C)[C@H](C)OC2=O)c1OCOCC(C)C [Compound 9] | > 80% | < 25% | < 80% | 75 to 100% | > 80% | > 80% | 133 to 136 °C | 25 to 74% | < 25% | < 80% | > 80% | 75 to 100%
COc1ccnc(C(=O)N[C@H]2COC(=O)[C@H](Cc3ccccc3)[C@@H](OC(=O)C(C)C)[C@H](C)OC2=O)c1OCO[Si](C)(C)C [Compound 13] | > 80% | < 25% | < 80% | 75 to 100% | < 80% | < 80% | 50 to 52 °C | 75 to 100% | < 25% | < 80% | > 80% | 75 to 100%
COc1ccnc(C(=O)N[C@H]2COC(=O)[C@H](Cc3ccccc3)[C@@H](OC(=O)C(C)C)[C@H](C)OC2=O)c1OCOCCCl [Compound 14] | < 80% | < 25% | < 80% | 75 to 100% | < 80% | < 80% | 140 to 143 °C | 75 to 100% | < 25% | < 80% | > 80% | 75 to 100%
COc1ccnc(C(=O)N[C@H]2COC(=O)[C@H](Cc3ccccc3)[C@@H](OC(=O)C(C)C)[C@H](C)OC2=O)c1OCOCCC#N [Compound 15] | > 80% | < 25% | < 80% | 75 to 100% | < 80% | > 80% | 62 to 67 °C | 75 to 100% | < 25% | < 80% | > 80% | 75 to 100%
COc1ccnc(C(=O)N[C@H]2COC(=O)[C@H](Cc3ccccc3)[C@@H](OC(=O)C(C)C)[C@H](C)OC2=O)c1OCOC(C)=O [Compound 20] | < 80% | < 25% | < 80% | 75 to 100% | < 80% | > 80% | 146 to 147 °C | 75 to 100% | 75 to 100% | < 80% | > 80% | 75 to 100%
CCCC(=O)OCOc1c(OC)ccnc1C(=O)N[C@H]1COC(=O)[C@H](Cc2ccccc2)[C@@H](OC(=O)C(C)C)[C@H](C)OC1=O [Compound 22] | < 80% | < 25% | < 80% | 75 to 100% | < 80% | < 80% | 102 to 105 °C | 75 to 100% | 75 to 100% | < 80% | > 80% | 75 to 100%
COc1ccnc(C(=O)N[C@H]2COC(=O)[C@H](Cc3ccccc3)[C@@H](OC(=O)C(C)C)[C@H](C)OC2=O)c1OCOC(=O)C(C)(C)C [Compound 24] | < 80% | < 25% | > 80% | 75 to 100% | > 80% | < 80% | 178 to 179 °C | 75 to 100% | 25 to 74% | < 80% | < 80% | 75 to 100%
COc1ccnc(C(=O)N[C@H]2COC(=O)[C@H](Cc3ccccc3)[C@@H](OC(=O)C(C)C)[C@H](C)OC2=O)c1OC(C)OC(C)=O (stereo partly shown) [Compound 25] | < 80% | < 25% | < 80% | 75 to 100% | > 80% | > 80% | 58 to 65 °C | 75 to 100% | < 25% | < 80% | > 80% | 75 to 100%
COc1ccnc(C(=O)N[C@H]2COC(=O)[C@H](Cc3ccccc3)[C@@H](OC(=O)C(C)C)[C@H](C)OC2=O)c1OCOC(=O)C1CC1 [Compound 26] | < 80% | < 25% | < 80% | 75 to 100% | < 80% | < 80% | 152 to 153 °C | 75 to 100% | 25 to 74% | < 80% | > 80% | 75 to 100%
COCCC(=O)OCOc1c(OC)ccnc1C(=O)N[C@H]1COC(=O)[C@H](Cc2ccccc2)[C@@H](OC(=O)C(C)C)[C@H](C)OC1=O [Compound 27] | < 80% | < 25% | > 80% | 75 to 100% | > 80% | < 80% | 84 to 86 °C | 75 to 100% | 75 to 100% | < 80% | > 80% | 75 to 100%
CCOCCC(=O)OCOc1c(OC)ccnc1C(=O)N[C@H]1COC(=O)[C@H](Cc2ccccc2)[C@@H](OC(=O)C(C)C)[C@H](C)OC1=O [Compound 28] | > 80% | < 25% | > 80% | 75 to 100% | > 80% | > 80% | 50 to 55 °C | 75 to 100% | 25 to 74% | < 80% | > 80% | 75 to 100%
CCCO[C@H]1[C@H](C)OC(=O)[C@@H](NC(=O)c2nccc(OC)c2OCOC(C)=O)COC(=O)[C@@H]1Cc1ccccc1 [Compound 51] | > 80% | < 25% | > 80% | 75 to 100% | > 80% | < 80% | 65 to 120 °C |  | 75 to 100% | < 80% | > 80% | 75 to 100%
C=C(C)CO[C@H]1[C@H](C)OC(=O)[C@@H](NC(=O)c2nccc(OC)c2OCOC(C)=O)COC(=O)[C@@H]1Cc1ccccc1 [Compound 53] | < 80% | < 25% | > 80% | 75 to 100% | > 80% | < 80% | 102 to 104 °C |  | < 25% | > 80% | > 80% | 75 to 100%
